Assay results published in ChEMBL document CHEMBL1201862, “PubChem BioAssay data set” (2004).
Calls of active or inactive are those of the source.

What was measured:
[1] = target: 26S proteasome non-ATPase regulatory subunit 14 (Homo sapiens, UniProt O00487); assay: inhibition of proteasome subunit RPN11 – biochemical, fluorescence polarization, uHTS hits, confirmation (AID 602368); assay type: functional
[2] = target: 72 kDa type IV collagenase (Homo sapiens, UniProt P08253); assay: Dose Response validation of uHTS RPN11 inhibitor hits using a MMP-2 Fluorescence assay.; assay type: functional
Chain of 72 kDa type IV collagenase (P08253 whole entry): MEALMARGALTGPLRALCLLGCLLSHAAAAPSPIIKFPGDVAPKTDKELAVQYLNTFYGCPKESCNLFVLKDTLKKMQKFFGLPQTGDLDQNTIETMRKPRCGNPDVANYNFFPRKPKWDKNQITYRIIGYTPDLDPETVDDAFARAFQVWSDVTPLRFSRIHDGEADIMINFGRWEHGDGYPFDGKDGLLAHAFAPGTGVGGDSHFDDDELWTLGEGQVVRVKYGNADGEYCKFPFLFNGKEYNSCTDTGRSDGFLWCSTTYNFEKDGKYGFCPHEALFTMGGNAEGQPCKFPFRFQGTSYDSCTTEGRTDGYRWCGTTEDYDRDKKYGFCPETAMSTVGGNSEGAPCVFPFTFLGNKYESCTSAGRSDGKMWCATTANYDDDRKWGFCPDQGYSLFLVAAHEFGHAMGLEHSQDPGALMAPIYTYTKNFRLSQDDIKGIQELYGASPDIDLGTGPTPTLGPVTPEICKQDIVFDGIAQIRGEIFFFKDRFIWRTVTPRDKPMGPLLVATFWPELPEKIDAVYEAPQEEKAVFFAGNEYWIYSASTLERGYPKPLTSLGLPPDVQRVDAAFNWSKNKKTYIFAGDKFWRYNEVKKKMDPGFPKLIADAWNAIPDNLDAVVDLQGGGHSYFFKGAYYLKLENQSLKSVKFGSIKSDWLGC

[3] = target: Prothrombin (Bos taurus, UniProt P00735); assay: thrombin protease inhibitors – biochemical, fluorescence polarization, uHTS hits, dose response (AID 602369); assay type: functional
[4] = target: Glyceraldehyde-3-phosphate dehydrogenase (Homo sapiens, UniProt P04406)
Chain of Glyceraldehyde-3-phosphate dehydrogenase (P04406 whole entry): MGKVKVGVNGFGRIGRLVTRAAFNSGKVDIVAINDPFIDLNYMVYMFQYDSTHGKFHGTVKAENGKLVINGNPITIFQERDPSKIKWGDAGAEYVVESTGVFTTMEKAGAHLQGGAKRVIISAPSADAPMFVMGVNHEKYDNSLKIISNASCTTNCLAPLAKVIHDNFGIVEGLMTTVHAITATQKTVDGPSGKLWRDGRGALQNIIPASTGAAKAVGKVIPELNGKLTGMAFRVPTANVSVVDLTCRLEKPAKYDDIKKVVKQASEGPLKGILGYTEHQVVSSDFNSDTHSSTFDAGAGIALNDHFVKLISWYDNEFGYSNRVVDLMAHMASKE

[5] = target: T1, Alkaline phosphatase, tissue-nonspecific isozyme (Homo sapiens, UniProt P05186); assay: potency against alkaline phosphatase TNAP – biochemical, luminescent, dose response, SAR follow-up (AID 1056)
T1 sequence (P05186 whole entry): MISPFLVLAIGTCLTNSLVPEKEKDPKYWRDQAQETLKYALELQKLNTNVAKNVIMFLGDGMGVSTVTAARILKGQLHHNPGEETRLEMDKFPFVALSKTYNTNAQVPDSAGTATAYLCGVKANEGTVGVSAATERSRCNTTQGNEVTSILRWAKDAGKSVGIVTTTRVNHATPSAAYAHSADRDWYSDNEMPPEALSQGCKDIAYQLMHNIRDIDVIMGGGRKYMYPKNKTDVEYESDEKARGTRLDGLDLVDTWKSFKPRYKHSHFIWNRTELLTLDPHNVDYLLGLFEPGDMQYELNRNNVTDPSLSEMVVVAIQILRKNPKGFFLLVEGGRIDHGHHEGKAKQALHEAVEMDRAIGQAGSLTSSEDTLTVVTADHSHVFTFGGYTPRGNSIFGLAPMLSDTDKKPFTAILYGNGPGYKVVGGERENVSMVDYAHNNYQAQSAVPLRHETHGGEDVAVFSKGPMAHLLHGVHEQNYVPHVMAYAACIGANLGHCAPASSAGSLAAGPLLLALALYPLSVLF

[6] = target: Adenosylmethionine-8-amino-7-oxononanoate aminotransferase (Mycobacterium tuberculosis, UniProt P9WQ81); assay: Mycobacterium tuberculosis BioA enzyme inhibitor Measured in Biochemical System Using Plate Reader - 2163-02_Inhibitor_Dose_CherryPick_Activity.; assay type: functional, Mycobacterium tuberculosis UT205
Chain of Adenosylmethionine-8-amino-7-oxononanoate aminotransferase (P9WQ81 whole entry): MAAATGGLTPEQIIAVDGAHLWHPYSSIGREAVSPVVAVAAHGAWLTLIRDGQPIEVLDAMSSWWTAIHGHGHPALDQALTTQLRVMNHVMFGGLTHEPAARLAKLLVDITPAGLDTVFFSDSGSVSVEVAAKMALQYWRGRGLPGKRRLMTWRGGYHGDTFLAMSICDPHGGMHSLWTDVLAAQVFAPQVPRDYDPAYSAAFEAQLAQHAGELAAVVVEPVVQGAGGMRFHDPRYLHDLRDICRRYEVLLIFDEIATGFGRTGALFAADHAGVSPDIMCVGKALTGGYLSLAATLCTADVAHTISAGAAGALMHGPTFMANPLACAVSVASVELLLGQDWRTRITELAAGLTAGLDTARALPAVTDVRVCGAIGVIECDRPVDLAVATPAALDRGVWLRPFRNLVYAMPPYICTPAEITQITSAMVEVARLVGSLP

[7] = target: T2, Hexokinase (Trypanosoma brucei, UniProt Q38C41); assay: Confirmation assay for inhibitors of Trypanosoma brucei hexokinase 1-Analogue-first series. [Related pubchem assays (depositor defined):AID1430, AID1632, AID2516, AID2560, AID2579, AID2600, AID449725, AID492951]; assay type: functional
T2 sequence (Q38C41 whole entry): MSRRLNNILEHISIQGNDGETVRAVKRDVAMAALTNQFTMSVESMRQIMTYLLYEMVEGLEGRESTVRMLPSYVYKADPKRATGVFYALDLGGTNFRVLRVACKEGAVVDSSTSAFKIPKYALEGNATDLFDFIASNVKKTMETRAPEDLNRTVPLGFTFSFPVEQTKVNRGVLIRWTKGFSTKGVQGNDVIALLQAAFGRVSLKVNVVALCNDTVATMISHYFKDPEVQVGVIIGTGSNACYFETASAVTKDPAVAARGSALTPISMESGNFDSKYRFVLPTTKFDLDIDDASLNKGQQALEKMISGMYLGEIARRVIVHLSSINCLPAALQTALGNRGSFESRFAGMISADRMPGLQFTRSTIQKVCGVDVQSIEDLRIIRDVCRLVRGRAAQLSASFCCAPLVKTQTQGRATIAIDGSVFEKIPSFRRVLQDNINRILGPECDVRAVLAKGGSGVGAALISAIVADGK

[8] = target: T3, Coagulation factor XII (Homo sapiens, UniProt P00748); assay type: functional;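 also: activated factor XIIa alpha cleaving a fluorogenic AMC peptide substrate; inhibitor potency from loss of enzyme activity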
T3 sequence (P00748 whole entry): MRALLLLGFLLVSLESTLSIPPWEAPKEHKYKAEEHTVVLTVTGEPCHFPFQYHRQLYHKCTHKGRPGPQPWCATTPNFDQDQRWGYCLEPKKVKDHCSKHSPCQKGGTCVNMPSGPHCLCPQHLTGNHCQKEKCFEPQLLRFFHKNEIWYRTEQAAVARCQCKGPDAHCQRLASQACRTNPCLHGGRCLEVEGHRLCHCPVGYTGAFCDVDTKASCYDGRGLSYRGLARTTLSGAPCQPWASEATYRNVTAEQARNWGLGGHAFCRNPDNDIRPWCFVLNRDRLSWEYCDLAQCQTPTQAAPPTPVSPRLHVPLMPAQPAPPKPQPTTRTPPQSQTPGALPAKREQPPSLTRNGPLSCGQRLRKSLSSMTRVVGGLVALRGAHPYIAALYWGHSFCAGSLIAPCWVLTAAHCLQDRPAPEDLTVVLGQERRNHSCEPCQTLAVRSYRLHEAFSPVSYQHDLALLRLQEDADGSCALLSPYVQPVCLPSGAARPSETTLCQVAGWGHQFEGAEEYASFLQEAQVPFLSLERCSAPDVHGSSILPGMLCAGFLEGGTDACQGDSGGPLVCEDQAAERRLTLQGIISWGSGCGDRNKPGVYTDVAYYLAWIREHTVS

[9] = target: Alkaline phosphatase, placental type (Homo sapiens, UniProt P05187); assay: human placental alkaline phosphatase inhibition – biochemical, luminescence, confirmation (AID 1512); assay type: functional
Chain of Alkaline phosphatase, placental type (P05187 whole entry): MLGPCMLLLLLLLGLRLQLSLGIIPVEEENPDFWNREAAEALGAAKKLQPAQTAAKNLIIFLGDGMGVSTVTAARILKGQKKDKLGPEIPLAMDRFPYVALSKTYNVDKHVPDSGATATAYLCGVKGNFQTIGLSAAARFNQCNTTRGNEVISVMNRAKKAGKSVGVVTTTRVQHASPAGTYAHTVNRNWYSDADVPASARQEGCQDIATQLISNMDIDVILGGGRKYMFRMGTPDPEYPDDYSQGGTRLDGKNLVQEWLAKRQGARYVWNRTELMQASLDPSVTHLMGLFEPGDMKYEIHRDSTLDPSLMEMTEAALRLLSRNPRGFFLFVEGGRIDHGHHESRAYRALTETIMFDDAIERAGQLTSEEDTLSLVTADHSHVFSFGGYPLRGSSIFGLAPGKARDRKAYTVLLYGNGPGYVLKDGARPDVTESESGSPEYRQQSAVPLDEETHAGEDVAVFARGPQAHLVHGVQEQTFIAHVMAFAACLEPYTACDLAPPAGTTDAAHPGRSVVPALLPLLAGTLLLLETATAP

[10] = target: T4, High affinity choline transporter 1 (Homo sapiens, UniProt Q9GZV3); assay: human choline transporter blockers, potency – cell-based, 5-point CRC, membrane potential dye, dose response (AID 504840); assay type: functional
T4 sequence (Q9GZV3 whole entry): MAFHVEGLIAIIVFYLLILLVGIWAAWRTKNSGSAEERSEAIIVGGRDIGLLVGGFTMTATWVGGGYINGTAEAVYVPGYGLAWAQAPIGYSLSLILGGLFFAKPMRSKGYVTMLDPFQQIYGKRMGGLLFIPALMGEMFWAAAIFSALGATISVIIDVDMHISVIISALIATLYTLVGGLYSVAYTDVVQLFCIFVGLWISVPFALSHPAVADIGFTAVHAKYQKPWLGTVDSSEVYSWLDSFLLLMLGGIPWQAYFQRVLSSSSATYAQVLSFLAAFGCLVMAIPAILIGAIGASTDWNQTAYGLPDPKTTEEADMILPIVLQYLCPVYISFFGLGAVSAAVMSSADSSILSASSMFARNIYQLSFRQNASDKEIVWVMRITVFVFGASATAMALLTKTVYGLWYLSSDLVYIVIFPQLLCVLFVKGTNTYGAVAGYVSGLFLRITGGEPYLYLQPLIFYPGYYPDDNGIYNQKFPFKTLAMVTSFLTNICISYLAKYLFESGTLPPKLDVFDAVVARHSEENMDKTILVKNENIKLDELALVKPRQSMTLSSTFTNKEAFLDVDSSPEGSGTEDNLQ

[11] = target: T4, High affinity choline transporter 1; assay: human choline transporter blockers, potency – cell-based, 10-point CRC, membrane potential dye, dose response (AID 588401); assay type: functional;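 also: membrane potential dye fluorescence of choline-evoked depolarization via CHT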
[12] = system: HeLa; assay: ATP-based viability loss in HeLa cells – cell-based, CellTiter-Glo luminescence, cherry-pick samples, cytotoxicity control for MITF activator project, dose response (AID 540259); assay type: functional; settings: Homo sapiens
[13] = target: Cytochrome P450 2D6 (Homo sapiens, UniProt P10635);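 also: CYP2D6 member of a cytochrome P450 panel assay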
Chain of Cytochrome P450 2D6 (P10635 whole entry): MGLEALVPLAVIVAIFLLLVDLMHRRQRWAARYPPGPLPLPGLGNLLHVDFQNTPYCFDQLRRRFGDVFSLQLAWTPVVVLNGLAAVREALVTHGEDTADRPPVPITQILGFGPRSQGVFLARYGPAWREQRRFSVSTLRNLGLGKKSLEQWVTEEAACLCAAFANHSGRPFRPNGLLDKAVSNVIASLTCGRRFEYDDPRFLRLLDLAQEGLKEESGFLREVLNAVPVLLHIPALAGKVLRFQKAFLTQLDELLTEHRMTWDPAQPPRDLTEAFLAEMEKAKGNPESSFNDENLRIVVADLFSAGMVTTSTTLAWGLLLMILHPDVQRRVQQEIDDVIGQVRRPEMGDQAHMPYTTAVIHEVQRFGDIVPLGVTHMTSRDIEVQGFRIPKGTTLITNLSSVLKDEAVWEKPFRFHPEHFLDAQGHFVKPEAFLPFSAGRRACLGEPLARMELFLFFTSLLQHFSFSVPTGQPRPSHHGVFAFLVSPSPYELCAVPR

[14] = target: Voltage-dependent T-type calcium channel subunit alpha-1H (Homo sapiens, UniProt O95180); assay type: functional;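 also: channel activity triggered by adding a high calcium stimulation buffer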
[15] = target: Ras and Rab interactor 1/Tyrosine-protein kinase ABL1 (Homo sapiens, UniProt P00519+Q13671); assay type: functional;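 also: biochemical TR-FRET dose-response test measuring inhibition of binding between Rin1 and Abl proteins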
Chain of Ras and Rab interactor 1/Tyrosine-protein kinase ABL1 (P00519 whole entry): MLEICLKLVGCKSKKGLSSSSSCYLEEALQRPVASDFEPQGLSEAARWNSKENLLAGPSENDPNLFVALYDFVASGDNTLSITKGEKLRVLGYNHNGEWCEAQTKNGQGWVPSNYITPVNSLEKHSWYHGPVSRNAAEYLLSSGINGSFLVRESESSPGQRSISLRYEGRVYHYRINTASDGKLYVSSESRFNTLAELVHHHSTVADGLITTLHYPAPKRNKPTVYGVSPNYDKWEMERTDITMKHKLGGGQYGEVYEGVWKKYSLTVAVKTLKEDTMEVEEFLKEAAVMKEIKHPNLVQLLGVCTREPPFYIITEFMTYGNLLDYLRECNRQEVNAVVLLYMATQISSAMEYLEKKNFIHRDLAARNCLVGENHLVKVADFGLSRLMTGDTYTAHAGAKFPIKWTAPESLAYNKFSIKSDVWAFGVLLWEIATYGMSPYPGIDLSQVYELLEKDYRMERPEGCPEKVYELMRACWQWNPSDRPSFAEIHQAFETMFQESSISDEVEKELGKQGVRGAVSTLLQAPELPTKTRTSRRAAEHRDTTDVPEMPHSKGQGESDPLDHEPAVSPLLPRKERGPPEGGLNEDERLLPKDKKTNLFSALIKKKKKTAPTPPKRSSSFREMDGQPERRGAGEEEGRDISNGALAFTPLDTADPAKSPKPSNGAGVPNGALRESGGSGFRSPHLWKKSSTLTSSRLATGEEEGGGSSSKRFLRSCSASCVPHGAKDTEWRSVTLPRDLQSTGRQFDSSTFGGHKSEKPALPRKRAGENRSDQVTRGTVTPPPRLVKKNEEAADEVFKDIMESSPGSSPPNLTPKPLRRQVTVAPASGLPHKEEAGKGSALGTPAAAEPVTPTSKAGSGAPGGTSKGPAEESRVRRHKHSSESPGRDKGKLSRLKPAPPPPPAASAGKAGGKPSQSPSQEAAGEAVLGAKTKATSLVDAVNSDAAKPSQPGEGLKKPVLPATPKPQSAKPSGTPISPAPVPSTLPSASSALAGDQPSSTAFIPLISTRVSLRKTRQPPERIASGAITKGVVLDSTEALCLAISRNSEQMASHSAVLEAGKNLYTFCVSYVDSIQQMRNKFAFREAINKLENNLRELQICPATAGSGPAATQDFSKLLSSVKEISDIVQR
Chain of Ras and Rab interactor 1/Tyrosine-protein kinase ABL1 (Q13671 whole entry): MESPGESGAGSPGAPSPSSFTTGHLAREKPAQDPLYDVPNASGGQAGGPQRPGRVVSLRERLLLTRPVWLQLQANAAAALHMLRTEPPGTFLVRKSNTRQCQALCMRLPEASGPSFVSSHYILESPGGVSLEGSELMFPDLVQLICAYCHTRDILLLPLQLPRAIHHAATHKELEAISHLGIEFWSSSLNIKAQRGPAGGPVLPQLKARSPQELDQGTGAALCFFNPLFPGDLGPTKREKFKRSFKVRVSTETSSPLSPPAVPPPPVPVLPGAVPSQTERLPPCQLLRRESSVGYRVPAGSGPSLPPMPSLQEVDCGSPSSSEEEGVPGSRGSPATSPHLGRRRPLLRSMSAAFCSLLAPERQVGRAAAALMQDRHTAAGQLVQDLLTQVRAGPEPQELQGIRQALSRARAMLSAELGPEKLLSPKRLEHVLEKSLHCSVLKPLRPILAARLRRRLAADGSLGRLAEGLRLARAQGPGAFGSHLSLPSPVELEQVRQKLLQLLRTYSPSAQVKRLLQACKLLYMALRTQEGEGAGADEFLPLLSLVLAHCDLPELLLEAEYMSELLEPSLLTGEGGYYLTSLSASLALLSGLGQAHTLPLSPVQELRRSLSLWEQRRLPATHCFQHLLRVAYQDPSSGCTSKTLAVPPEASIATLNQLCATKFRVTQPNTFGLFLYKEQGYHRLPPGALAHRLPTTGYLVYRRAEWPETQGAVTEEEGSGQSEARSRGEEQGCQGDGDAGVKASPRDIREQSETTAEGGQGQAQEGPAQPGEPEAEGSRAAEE

[16] = system: HEK293; assay: cells; assay type: functional, cell-based; settings: Homo sapiens
[17] = target: T5, Nuclear receptor subfamily 0 group B member 1 (Homo sapiens, UniProt P51843); assay: Luminescence-based cell-based high throughput dose response assay for inhibitors of the orphan nuclear receptor subfamily 0, group B, member 1 (DAX1; NR0B1). [Related pubchem assays (depositor defined):AID504766, AID504790]; assay type: functional
T5 sequence (P51843 whole entry): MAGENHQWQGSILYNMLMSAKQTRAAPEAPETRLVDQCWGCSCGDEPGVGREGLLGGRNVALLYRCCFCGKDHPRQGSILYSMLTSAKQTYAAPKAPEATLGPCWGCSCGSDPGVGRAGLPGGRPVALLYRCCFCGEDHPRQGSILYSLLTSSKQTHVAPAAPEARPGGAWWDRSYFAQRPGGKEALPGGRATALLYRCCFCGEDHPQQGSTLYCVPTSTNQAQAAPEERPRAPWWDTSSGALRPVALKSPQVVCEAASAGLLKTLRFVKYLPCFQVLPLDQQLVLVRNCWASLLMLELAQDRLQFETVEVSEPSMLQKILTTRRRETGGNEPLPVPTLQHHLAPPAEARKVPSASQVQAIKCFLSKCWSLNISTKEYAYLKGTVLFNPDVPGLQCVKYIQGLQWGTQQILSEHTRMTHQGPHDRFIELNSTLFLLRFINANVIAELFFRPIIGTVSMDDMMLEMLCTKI

[18] = system: CHO; assay: CHO cell viability loss, potency – luminescence, cytotoxicity control for TLR9-MyD88 binding inhibitor project, dose response (AID 588339); assay type: functional, cell-based, hamster; settings: Cricetulus griseus;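 also: CHO cells stably coexpressing TLR9 and MyD88 fusions from primary screen; compound exposure lasted 48 hours before viability readout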
[19] = target: T6, Heat shock factor protein 1 (Mus musculus, UniProt P38532); assay: enhancement of HSF1-driven luciferase signal – cell-based, NIH3T3, luminescence, dose retest, confirmation (AID 435004); assay type: functional;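 also: stress induced by proteasome inhibitor MG132 added 30 min after compound; luciferase reporter driven by HSF1 response element in NIH3T3 cells; actives raise luminescence as potentiators of the MG132 stress response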
T6 sequence (P38532 whole entry): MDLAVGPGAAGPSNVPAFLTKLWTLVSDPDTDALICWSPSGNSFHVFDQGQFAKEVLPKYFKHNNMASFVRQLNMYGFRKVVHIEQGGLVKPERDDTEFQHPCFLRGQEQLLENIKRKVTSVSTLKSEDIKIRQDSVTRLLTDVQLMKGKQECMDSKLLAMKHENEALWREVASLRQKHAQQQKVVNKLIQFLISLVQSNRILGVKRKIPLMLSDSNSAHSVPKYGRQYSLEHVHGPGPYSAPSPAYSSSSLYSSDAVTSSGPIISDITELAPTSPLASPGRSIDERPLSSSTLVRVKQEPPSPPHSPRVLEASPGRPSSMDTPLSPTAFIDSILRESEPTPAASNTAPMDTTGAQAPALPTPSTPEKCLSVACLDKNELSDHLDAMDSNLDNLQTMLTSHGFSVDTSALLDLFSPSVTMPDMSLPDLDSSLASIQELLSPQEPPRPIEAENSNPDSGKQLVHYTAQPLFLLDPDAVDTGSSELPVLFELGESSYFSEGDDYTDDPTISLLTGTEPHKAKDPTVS

[20] = system: H9c2; assay: cells; assay type: functional, cell-based; settings: Rattus norvegicus, H9c2, Myocardium;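 also: confirmatory concentration-response retest of ultra-high-throughput screening hits for modulation of myocardial damage; cell death induced by hydrogen peroxide oxidative stress; compound pretreatment for 60 min then peroxide exposure for 2 h; potency is for protecting the cells against peroxide damage rather than for killing them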
[21] = target: T7, Mannose-6-phosphate isomerase (Homo sapiens, UniProt P34949); assay: phosphomannose isomerase inhibition – biochemical, fluorescence intensity, confirmation (AID 1535)
T7 sequence (P34949 whole entry): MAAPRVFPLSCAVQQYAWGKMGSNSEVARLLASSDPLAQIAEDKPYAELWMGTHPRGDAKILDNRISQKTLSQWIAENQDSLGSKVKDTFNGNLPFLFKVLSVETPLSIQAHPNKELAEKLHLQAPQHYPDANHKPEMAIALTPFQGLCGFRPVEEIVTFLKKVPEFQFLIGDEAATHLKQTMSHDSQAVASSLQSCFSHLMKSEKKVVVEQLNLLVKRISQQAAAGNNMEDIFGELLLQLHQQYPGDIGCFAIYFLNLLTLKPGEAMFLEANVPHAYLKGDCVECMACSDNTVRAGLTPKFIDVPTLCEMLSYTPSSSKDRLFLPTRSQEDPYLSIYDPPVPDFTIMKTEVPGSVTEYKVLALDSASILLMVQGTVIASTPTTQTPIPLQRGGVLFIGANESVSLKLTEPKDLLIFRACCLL

Chain of 26S proteasome non-ATPase regulatory subunit 14 (O00487 whole entry): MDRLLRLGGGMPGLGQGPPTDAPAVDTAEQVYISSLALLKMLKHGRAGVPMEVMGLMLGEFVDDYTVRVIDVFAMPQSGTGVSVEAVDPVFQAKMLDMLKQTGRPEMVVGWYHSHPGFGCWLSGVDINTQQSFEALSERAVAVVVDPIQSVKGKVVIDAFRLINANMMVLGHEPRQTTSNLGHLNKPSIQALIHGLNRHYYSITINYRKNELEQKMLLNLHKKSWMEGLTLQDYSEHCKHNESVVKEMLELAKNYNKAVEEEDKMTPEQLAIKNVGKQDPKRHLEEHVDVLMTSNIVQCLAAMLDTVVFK

## O=C1CSC(=S)N1N=Cc1ccc(Cl)s1
[1]
  IC50: 59.4 µM (active)
[2]
  IC50: > 100 µM (inactive)
[3]
  IC50: 27.1 µM (active)

## COC(=O)c1ccc(N2NC(=O)/C(=C/c3cc(OC)c(O)c(OC)c3)C2=O)cc1
[1]
  IC50: 18.5 µM (active)
[2]
  IC50: 81.6 µM (active)
[3]
  IC50: 27 µM (active)

## COc1ccc(-c2cc(C(=O)O)[nH]n2)c(OC)c1
[4]
  IC50: > 100 µM (not active)
[5]
  IC50: 38.2 µM (active)

## COc1cc(-c2nnc(S)n2C(C)c2ccccc2)cc(OC)c1OC (configuration not stated)
[6]
  AC50: 5.84 µM (active)

## COC(=O)c1ccc(Cl)cc1NC(=O)c1ccc(Cl)cc1
[7]
  IC50: > 25 µM (inactive)

## O=C(Cn1nnc(-c2ccccc2)n1)OCc1csc(-c2ccccc2)n1
[8]
  IC50: > 50 µM (inactive)

## Cc1cc(C)n2nc(C(=O)Nc3cccnc3)nc2n1
[6]
  AC50: 4.85 µM (active)

## O=C(O)c1cc(-c2cc(F)c(Cl)cc2Cl)n[nH]1
[9]
  IC50: > 100 µM (inactive)
[4]
  IC50: > 100 µM (not active)
[5]
  IC50: 1.09 µM (active)

## COc1ccc(C(=O)C[n+]2cccc(Br)c2)cc1
[10]
  IC50: 4.21 µM (active)
[11]
  IC50: 1.19 µM (active)

## Cc1csc(NC(=O)Cc2c[nH]c3ccccc23)n1
[8]
  IC50: > 50 µM (inactive)
[12]
  AC50: 320 µM (active)
[13]
  AC50: 22.4 µM (inconclusive)
[14]
  EC50: 9.34 µM (active)

## CCCCC(=O)C1CCN(Cc2ccccc2)CC1
[15]
  IC50: 19.4 µM (inactive)

## C=CCn1c(SCC(=O)c2ccc(O)c(O)c2)nnc1-c1ccccc1
[9]
  IC50: 2.53 µM (active)
[5]
  IC50: 19.5 µM (active)

## O=C(COC(=O)c1[nH]nc2ccccc12)Nc1ccccc1
[16]
  IC50: > 67.5 µM (inactive)
[17]
  IC50: > 67.5 µM (inactive)

## CCSc1nnc(NC(=O)C(C)(C(F)(F)F)C(F)(F)F)s1
[10]
  IC50: 3.47 µM (active)
[11]
  IC50: 2.82 µM (active)

## Cc1ccccc1-n1nc(CSc2nc3ccccc3[nH]2)c(-c2ccccc2)c1N
[9]
  IC50: > 100 µM (inactive)

## O=C(NCc1cccc(C(F)(F)F)c1)c1cccc2c1C(=O)c1ccc(N3CCC(Cc4ccccc4)CC3)cc1S2(=O)=O
[18]
  IC50: > 49.8 µM (inactive)

## COc1cccc(C(=O)Nc2cc(Cl)ccc2C(=O)O)c1
[7]
  IC50: 17.9 µM (active)

## O=c1[nH]n(CC2COC3(CCCCC3)O2)c(=O)c2ccccc12 (configuration not stated)
[15]
  IC50: 12.5 µM (inactive)
[19]
  EC50: 79 µM (active)
[20]
  IC50: > 79 µM (inactive)

## Clc1ccnc(/N=c2\ssnc2Cl)c1
[21]
  IC50: > 100 µM (inactive)

## C#CCOc1nc(Nc2cccc([N+](=O)[O-])c2)nc(OCC#C)n1
[8]
  IC50: > 50 µM (inactive)
[20]
  IC50: > 79 µM (inactive)
